PubChem BioAssay AID1963437 (Molecular Pharmacology Branch, DTP, NCI, 2024)

Tested on: OVCAR-8 complex spheroid, growth inhibition
Assay: Anticancer human tumor OVCAR-8 cell line growth inhibition [Asc];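 also: spheroids exposed to agents for 7 days before readout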;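 as to viability, T/C: percent viability relative to DMSO vehicle wells taken as 100%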
Details: for IC50: curve of first compound; for viability, T/C: stronger effect = lower value; active = viability on the fitted dose curve at most 10% of control; inactive = the rest
Summary of the method: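 Tumor cells were grown as complex spheroids with human endothelial cells (HUVEC) and human mesenchymal stem cells as stroma. Agents were tested alone and in combination, in half-log steps down from the clinical Cmax, or from 10 microM where Cmax was unknown.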

[1] = second compound 0.0316 µM, first compound 0.0316 µM
[2] = second compound 0.0316 µM, first compound 0.1 µM
[3] = second compound 0.0316 µM, first compound 0.316 µM
[4] = second compound 0.0316 µM, first compound 1 µM
[5] = second compound 0.1 µM, first compound 0.0316 µM
[6] = second compound 0.1 µM, first compound 0.1 µM
[7] = second compound 0.1 µM, first compound 0.316 µM
[8] = second compound 0.1 µM, first compound 1 µM
[9] = second compound 0.316 µM, first compound 0.0316 µM
[10] = second compound 0.316 µM, first compound 0.1 µM
[11] = second compound 0.316 µM, first compound 0.316 µM
[12] = second compound 0.316 µM, first compound 1 µM
[13] = second compound 1 µM, first compound 0.0316 µM
[14] = second compound 1 µM, first compound 0.1 µM
[15] = second compound 1 µM, first compound 0.316 µM
[16] = second compound 1 µM, first compound 1 µM
[17] = second compound 3.16 µM, first compound 0.0316 µM
[18] = second compound 3.16 µM, first compound 0.1 µM
[19] = second compound 3.16 µM, first compound 0.316 µM
[20] = second compound 3.16 µM, first compound 1 µM
[21] = second compound 10 µM, first compound 0.0316 µM
[22] = second compound 10 µM, first compound 0.1 µM
[23] = second compound 10 µM, first compound 0.316 µM
[24] = second compound 10 µM, first compound 1 µM

C=CC(=O)N1CCN(c2nc(=O)n(-c3c(C)ccnc3C(C)C)c3nc(-c4c(O)cccc4F)c(F)cc23)C(C)C1 (centres undefined) + Cc1c(S(C)(=O)=O)c(-c2cc(F)cc(N3CCN(c4ccc(NS(=O)(=O)c5ccc(NC(CCN6CCC(C(=O)OCCCP(=O)(O)O)CC6)CSc6ccccc6)c(S(=O)(=O)C(F)(F)F)c5)cc4)CC3)c2)c(-c2ccc(Cl)cc2)n1C(C)C
> 10 µM: IC50 (second compound 0.0316 µM) | IC50 (second compound 0.1 µM) | IC50 (second compound 0.316 µM) | IC50 (second compound 1 µM) | IC50 (second compound 3.16 µM) | IC50 (second compound 10 µM)
inactive: viability, T/C [1] 109% | viability, T/C [2] 113% | viability, T/C [3] 93.3% | viability, T/C [4] 95% | viability, T/C (second compound 0.0316 µM, first compound 3.16 µM) 106% | viability, T/C (second compound 0.0316 µM, first compound 10 µM) 122% | viability, T/C [5] 101% | viability, T/C [6] 96.2% | viability, T/C [7] 94.5% | viability, T/C [8] 104% | viability, T/C (second compound 0.1 µM, first compound 3.16 µM) 93.3% | viability, T/C (second compound 0.1 µM, first compound 10 µM) 118% | viability, T/C [9] 97.5% | viability, T/C [10] 92.3% | viability, T/C [11] 106% | viability, T/C [12] 93.6% | viability, T/C (second compound 0.316 µM, first compound 3.16 µM) 99% | viability, T/C (second compound 0.316 µM, first compound 10 µM) 123% | viability, T/C [13] 104% | viability, T/C [14] 112% | viability, T/C [15] 114% | viability, T/C [16] 92.9% | viability, T/C (second compound 1 µM, first compound 3.16 µM) 92.8% | viability, T/C (second compound 1 µM, first compound 10 µM) 109% | viability, T/C [17] 102% | viability, T/C [18] 98.3% | viability, T/C [19] 89.7% | viability, T/C [20] 104% | viability, T/C (second compound 3.16 µM, first compound 3.16 µM) 93.7% | viability, T/C (second compound 3.16 µM, first compound 10 µM) 105% | viability, T/C [21] 101% | viability, T/C [22] 91.5% | viability, T/C [23] 81.9% | viability, T/C [24] 91.6% | viability, T/C (second compound 10 µM, first compound 3.16 µM) 99.5% | viability, T/C (second compound 10 µM, first compound 10 µM) 101%

COc1c(OCCCN2CCOCC2)ccc2c3n(c(=NC(=O)c4cnc(N)nc4)nc12)CCN3 + Cc1c(S(C)(=O)=O)c(-c2cc(F)cc(N3CCN(c4ccc(NS(=O)(=O)c5ccc(NC(CCN6CCC(C(=O)OCCCP(=O)(O)O)CC6)CSc6ccccc6)c(S(=O)(=O)C(F)(F)F)c5)cc4)CC3)c2)c(-c2ccc(Cl)cc2)n1C(C)C
> 1 µM: IC50 (second compound 0.0316 µM) | IC50 (second compound 0.1 µM) | IC50 (second compound 0.316 µM) | IC50 (second compound 1 µM) | IC50 (second compound 3.16 µM) | IC50 (second compound 10 µM)
inactive: viability, T/C (second compound 0.0316 µM, first compound 0.00316 µM) 114% | viability, T/C (second compound 0.0316 µM, first compound 0.01 µM) 104% | viability, T/C [1] 128% | viability, T/C [2] 150% | viability, T/C [3] 149% | viability, T/C [4] 82.2% | viability, T/C (second compound 0.1 µM, first compound 0.00316 µM) 100% | viability, T/C (second compound 0.1 µM, first compound 0.01 µM) 107% | viability, T/C [5] 142% | viability, T/C [6] 161% | viability, T/C [7] 145% | viability, T/C [8] 85.9% | viability, T/C (second compound 0.316 µM, first compound 0.00316 µM) 91.6% | viability, T/C (second compound 0.316 µM, first compound 0.01 µM) 121% | viability, T/C [9] 154% | viability, T/C [10] 146% | viability, T/C [11] 140% | viability, T/C [12] 85.8% | viability, T/C (second compound 1 µM, first compound 0.00316 µM) 114% | viability, T/C (second compound 1 µM, first compound 0.01 µM) 119% | viability, T/C [13] 167% | viability, T/C [14] 181% | viability, T/C [15] 142% | viability, T/C [16] 82.8% | viability, T/C (second compound 3.16 µM, first compound 0.00316 µM) 144% | viability, T/C (second compound 3.16 µM, first compound 0.01 µM) 98.8% | viability, T/C [17] 136% | viability, T/C [18] 170% | viability, T/C [19] 135% | viability, T/C [20] 64.2% | viability, T/C (second compound 10 µM, first compound 0.00316 µM) 131% | viability, T/C (second compound 10 µM, first compound 0.01 µM) 141% | viability, T/C [21] 146% | viability, T/C [22] 189% | viability, T/C [23] 143% | viability, T/C [24] 76.2%
